Patent publication US6737383B1, “Herbicidal oxadiazolidines” (priority 1999, dated 2004)

Experiments:
blackgrass = assay: Test B pre/postemergence blackgrass; assay type: in vivo, Alopecurus myosuroides
Outline: (§1)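 Response is a visual 0-to-10 score relative to untreated plants, where 0 means no effect and 10 means complete control, taken twelve to sixteen days after application. Treatments went onto soil at planting and onto foliage of 1- to 4-leaf plants, using a surfactant-containing non-phytotoxic solvent.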

surinam grass = assay: Test B pre/postemergence surinam grass; assay type: in vivo, Brachiaria decumbens
Outline: as §1

cocklebur = assay: Test B pre/postemergence cocklebur; assay type: in vivo, Xanthium strumarium
Outline: as §1

corn = assay: Test B pre/postemergence corn; assay type: in vivo, Zea mays
Outline: as §1

crabgrass = assay: Test B pre/postemergence crabgrass; assay type: in vivo, Digitaria sanguinalis
Outline: as §1

giant foxtail = assay: Test B pre/postemergence giant foxtail; assay type: in vivo, Setaria faberii
Outline: as §1

morningglory = assay: Test B pre/postemergence morningglory; assay type: in vivo, Ipomoea hederacea
Outline: as §1

velvetleaf = assay: Test B pre/postemergence velvetleaf; assay type: in vivo, Abutilon theophrasti
Outline: as §1

wheat = assay: Test B pre/postemergence wheat; assay type: in vivo, Triticum aestivum
Outline: as §1

wild oat = assay: Test B pre/postemergence wild oat; assay type: in vivo, Avena fatua
Outline: as §1

purple nutsedge = assay: Test B pre/postemergence purple nutsedge; assay type: in vivo, Cyperus rotundus
Outline: as §1

rice = assay: Test B flood test rice; assay type: in vivo, Oryza sativa
Outline: (§2)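 Flood test on plants grown to the 2-leaf stage; treated plants kept in greenhouse twelve to sixteen days, then visually rated against controls on a 0 (no effect) to 10 (complete control) scale.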

smallflower flatsedge = assay: Test B flood test smallflower flatsedge; assay type: in vivo, Cyperus difformis
Outline: as §2

duck salad = assay: Test B flood test duck salad; assay type: in vivo, Heteranthera limosa
Outline: as §2

bamyardgrass = assay: Test B flood test barnyardgrass; assay type: in vivo, Echinochloa crus-galli
Outline: as §2

[1] = Postemergence, Rate 250 g/ha, scale 0 to 10
[2] = Postemergence, Rate 500 g/ha, scale of 0 to 10 where 0 is no effect and 10 is complete control
[3] = Preemergence, Rate 62 g/ha, scale of 0 to 10 where 0 is no effect and 10 is complete control
[4] = Preemergence, Rate 125 g/ha, scale of 0 to 10 where 0 is no effect and 10 is complete control
[5] = Preemergence, Rate 250 g/ha, scale 0 to 10, 0 is no effect, 10 is complete control
[6] = Preemergence, Rate 500 g/ha, scale 0 to 10, 0 is no effect, 10 is complete control
[7] = Rate 62 g/ha, Postemergence, scale 0 to 10, 0 no effect, 10 complete control
[8] = Rate 125 g/ha, Postemergence, scale 0 to 10, 0 is no effect, 10 is complete control
[9] = Rate 62 g/ha, flood test species, Pre-emergence, visual evaluation after twelve to sixteen days
[10] = Rate 125 g/ha, under heading Pre-emergence, flood test species, visual evaluation after twelve to sixteen days
[11] = Rate 250 g/ha, Pre-emergence (flood test species), scale 0 to 10, 0 is no effect, 10 is complete control
[12] = Rate 500 g/ha, Pre-emergence, flood test species, scale 0 to 10 (0 no effect, 10 complete control)

COC(C)n1c(=O)on(C(=O)N(c2ccc(F)cc2)C(C)C)c1=O (centres unmarked) [Compound 439]
0: Blackgrass plant response rating (blackgrass; [1]) | Blackgrass plant response rating (blackgrass; [2]) | Plant response rating, Blackgrass (blackgrass; [3]) | Plant response rating, Blackgrass (blackgrass; [4]) | Blackgrass plant response rating (blackgrass; [5]) | Blackgrass plant response rating (blackgrass; [6]) | Blackgrass plant response rating (blackgrass; [7]) | Blackgrass plant response rating (blackgrass; [8]) | B. signalgrass plant response rating (surinam grass; Postemergence, Rate 250 g/ha, scale 0 to 10, 0 no effect, 10 complete control) | B. signalgrass plant response rating (surinam grass; [2]) | Plant response rating, B. signalgrass (surinam grass; [3]) | Plant response rating, B. signalgrass (surinam grass; [4]) | B. signalgrass plant response rating (surinam grass; [5]) | B. signalgrass plant response rating (surinam grass; [6]) | B. signalgrass plant response rating (surinam grass; [7]) | B. signalgrass plant response rating (surinam grass; [8]) | Cocklebur plant response rating (cocklebur; [1]) | Cocklebur plant response rating (cocklebur; [2]) | Plant response rating, Cocklebur (cocklebur; [3]) | Plant response rating, Cocklebur (cocklebur; [4]) | Cocklebur plant response rating (cocklebur; [5]) | Cocklebur plant response rating (cocklebur; [6]) | Cocklebur plant response rating (cocklebur; [7]) | Cocklebur plant response rating (cocklebur; [8]) | Corn plant response rating (corn; [1]) | Corn plant response rating (corn; [2]) | Plant response rating, Corn (corn; [3]) | Plant response rating, Corn (corn; [4]) | Corn plant response rating (corn; [5]) | Corn plant response rating (corn; [6]) | Corn plant response rating (corn; [7]) | Corn plant response rating (corn; [8]) | Crabgrass plant response rating (crabgrass; [1]) | Crabgrass plant response rating (crabgrass; [2]) | Plant response rating, Crabgrass (crabgrass; [3]) | Plant response rating, Crabgrass (crabgrass; [4]) | Crabgrass plant response rating (crabgrass; [5]) | Crabgrass plant response rating (crabgrass; [6]) | Crabgrass plant response rating (crabgrass; [7]) | Crabgrass plant response rating (crabgrass; [8]) | Giant foxtail plant response rating (giant foxtail; [1]) | Giant foxtail plant response rating (giant foxtail; [2]) | Plant response rating, Giant foxtail (giant foxtail; [3]) | Plant response rating, Giant foxtail (giant foxtail; [4]) | Giant foxtail plant response rating (giant foxtail; [5]) | Giant foxtail plant response rating (giant foxtail; [6]) | Giant foxtail plant response rating (giant foxtail; [7]) | Giant foxtail plant response rating (giant foxtail; [8]) | Morningglory plant response rating (morningglory; [1]) | Morningglory plant response rating (morningglory; [2]) | Plant response rating, Morningglory (morningglory; [3]) | Plant response rating, Morningglory (morningglory; [4]) | Morningglory plant response rating (morningglory; [5]) | Morningglory plant response rating (morningglory; [6]) | Morningglory plant response rating (morningglory; [7]) | Morningglory plant response rating (morningglory; [8]) | Velvetleaf plant response rating (velvetleaf; [1]) | Velvetleaf plant response rating (velvetleaf; [2]) | Plant response rating, Velvetleaf (velvetleaf; [3]) | Plant response rating, Velvetleaf (velvetleaf; [4]) | Velvetleaf plant response rating (velvetleaf; [5]) | Velvetleaf plant response rating (velvetleaf; [6]) | Velvetleaf plant response rating (velvetleaf; [7]) | Velvetleaf plant response rating (velvetleaf; [8]) | Wheat plant response rating (wheat; [1]) | Wheat plant response rating (wheat; [2]) | Plant response rating, Wheat (wheat; [3]) | Plant response rating, Wheat (wheat; [4]) | Wheat plant response rating (wheat; [5]) | Wheat plant response rating (wheat; [6]) | Wheat plant response rating (wheat; [7]) | Wheat plant response rating (wheat; [8]) | Wild oats plant response rating (wild oat; [1]) | Wild oats plant response rating (wild oat; [2]) | Plant response rating, Wild oats (wild oat; [3]) | Plant response rating, Wild oats (wild oat; [4]) | Wild oats plant response rating (wild oat; [5]) | Wild oats plant response rating (wild oat; [6]) | Wild oats plant response rating (wild oat; [7]) | Wild oats plant response rating (wild oat; [8]) | Nutsedge plant response rating (purple nutsedge; [1]) | Nutsedge plant response rating (purple nutsedge; [2]) | Plant response rating, Nutsedge (purple nutsedge; [3]) | Plant response rating, Nutsedge (purple nutsedge; [4]) | Nutsedge plant response rating (purple nutsedge; [5]) | Nutsedge plant response rating (purple nutsedge; [6]) | Nutsedge plant response rating (purple nutsedge; [7]) | Nutsedge plant response rating (purple nutsedge; [8]) | Plant response rating, Rice (0 to 10 scale, 0 is no effect, 10 is complete control) (rice; [9]) | Rice plant response rating (0 to 10 scale, 0 is no effect, 10 is complete control) (rice; [10]) | Rice plant response rating (rice; [11]) | Rice plant response rating (rice; [12]) | Plant response rating, S. Flatsedge (0 to 10 scale, 0 is no effect, 10 is complete control) (smallflower flatsedge; [9]) | S. Flatsedge plant response rating (0 to 10 scale, 0 is no effect, 10 is complete control) (smallflower flatsedge; [10]) | S. Flatsedge plant response rating (smallflower flatsedge; [11]) | S. Flatsedge plant response rating (smallflower flatsedge; [12]) | Plant response rating, Ducksalad (0 to 10 scale, 0 is no effect, 10 is complete control) (duck salad; [9]) | Ducksalad plant response rating (0 to 10 scale, 0 is no effect, 10 is complete control) (duck salad; [10]) | Ducksalad plant response rating (duck salad; [11]) | Ducksalad plant response rating (duck salad; [12]) | Plant response rating, Barnyardgrass (0 to 10 scale, 0 is no effect, 10 is complete control) (bamyardgrass; [9]) | Barnyardgrass plant response rating (0 to 10 scale, 0 is no effect, 10 is complete control) (bamyardgrass; [10]) | Barnyardgrass plant response rating (bamyardgrass; [11]) | Barnyardgrass plant response rating (bamyardgrass; [12])
